This is an account of results in ChEMBL document CHEMBL4680264, “Progress toward a Glycoprotein VI Modulator for the Treatment of Thrombosis” (J Med Chem, 2020).

pIC50, pKd: −log10 of the molar value.

The nature of test [1]: Inhibition of ADP-stimulated human platelet aggregation assessed as ADP light transmission at 50 uM preincubated for 5 min followed by ADP stimulation by light transmission aggregometry (reference value: 62 +/- 3%). It counts as functional. Further details: scale not given: the % may be the effect or the level left.
Test [2] addresses T1, Thromboxane A2 receptor (Homo sapiens) (UniProt P21731).
T1 sequence (whole entry): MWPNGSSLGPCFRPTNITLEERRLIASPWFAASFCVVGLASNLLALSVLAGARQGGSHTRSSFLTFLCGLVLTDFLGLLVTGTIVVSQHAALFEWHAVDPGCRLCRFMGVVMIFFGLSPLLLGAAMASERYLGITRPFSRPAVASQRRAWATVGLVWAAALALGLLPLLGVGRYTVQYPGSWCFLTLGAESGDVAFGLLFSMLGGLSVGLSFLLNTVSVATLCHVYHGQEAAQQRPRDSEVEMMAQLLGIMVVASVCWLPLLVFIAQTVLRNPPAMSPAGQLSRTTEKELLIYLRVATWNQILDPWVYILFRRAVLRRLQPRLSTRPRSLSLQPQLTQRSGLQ
Put plainly: Modulation of TxA2 receptor in human platelet suspension assessed as lowest concentration that reduced U46619-induced platelet aggregation preincubated for 5 min followed by U46619 stimulation by light transmission aggregometry. It counts as tissue-based. As to conditions: filed as modulator.

Test [3] deals with T2, Platelet glycoprotein VI (Homo sapiens, UniProt Q9HCN6).
T2 sequence (Q9HCN6 whole entry): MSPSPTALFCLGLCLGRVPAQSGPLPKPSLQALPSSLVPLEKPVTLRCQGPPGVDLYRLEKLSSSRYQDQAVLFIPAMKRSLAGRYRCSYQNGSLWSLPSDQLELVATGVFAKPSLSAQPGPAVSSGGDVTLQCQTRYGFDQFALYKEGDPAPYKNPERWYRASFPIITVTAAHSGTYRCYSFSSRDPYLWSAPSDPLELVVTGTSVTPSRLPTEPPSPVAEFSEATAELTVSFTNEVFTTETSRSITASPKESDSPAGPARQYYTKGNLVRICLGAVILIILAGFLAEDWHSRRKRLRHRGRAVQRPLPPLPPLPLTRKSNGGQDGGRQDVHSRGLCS
The test is described as follows: Binding affinity to recombinant GP6 (unknown origin) at protein to compound ratio of 1 : 1 to 1 : 10 by 2D 15N-1H TROSY-HSQC NMR spectroscopy.

For test [4], the target named is T2, Platelet glycoprotein VI. The test is described as follows: Modulation of GP6 in human platelets assessed as reduction in convulxin-induced P-selectin expression preincubated for 20 mins followed by convulxin stimulation and measured after 1 min by Western blot analysis. It is filed as tissue-based.
Test [5] can be described thus: Modulation of GP6/FcRgamma in human platelet-rich plasma assessed as reduction in convulxin-induced platelet aggregation.
Test [6] is described as follows: Modulation of GP6 in porcine platelet-rich plasma assessed as reduction in convulxin-induced platelet aggregation. It counts as tissue-based. As to conditions: Sus scrofa.
The nature of test [7]: Inhibition of collagen-induced human platelet aggregation preincubated for 20 mins followed by collagen stimulation and measured for 10 mins by aggregometry. It counts as functional, tissue-based.
The nature of test [8]: Inhibition of collagen-induced platelet aggregation in human platelet suspension preincubated for 10 mins followed by collagen stimulation by light transmission-based assay. It counts as functional, tissue-based.
Test [9] concerns the target T3, Platelet glycoprotein VI (Homo sapiens) (UniProt Q9HCN6).
T3 sequence (whole entry): T2 sequence (Q9HCN6 whole entry)
As to conditions: Plasma, filed as modulator, time 15.0 min.

A short description of test [10]: Antagonist activity at GP6 in human platelet assessed as reduction in CRP-induced platelet-aggregation preincubated for 60 secs followed by […] by light transmission aggregometry.
The target in test [11] is T2, Platelet glycoprotein VI. Put plainly: Binding affinity to human platelet lysate GP6 at 0.1 uM by surface plasmon resonance analysis. It is filed as subcellular.
Test [12] is described as follows: Inhibition of ADP-induced platelet aggregation in rabbit platelet suspension preincubated for 10 mins followed by ADP stimulation by turbidimetric method. As to conditions: Oryctolagus cuniculus. It is filed as functional, tissue-based.
Test [13] is described as follows: Inhibition of arachidonic acid-induced platelet aggregation in rabbit platelet suspension preincubated for 10 mins followed by AA stimulation by turbidimetric method. It is filed as functional, tissue-based. The following applies: Oryctolagus cuniculus.
Test [14] can be described thus: Inhibition of PAF-induced platelet aggregation in rabbit platelet suspension preincubated for 10 mins followed by PAF stimulation by turbidimetric method. It counts as functional, tissue-based. As to conditions: Oryctolagus cuniculus.
Test [15] concerns the target T2, Platelet glycoprotein VI. Put plainly: Binding affinity to human platelet lysate GP6 at 100 uM by surface plasmon resonance analysis. It is filed as subcellular.
Test [16] is described as follows: Inhibition of collagen-induced platelet aggregation in human platelet suspension preincubated for 3 mins followed by collagen stimulation and measured after 6 mins by lumi-aggregometry. It counts as functional, tissue-based.
A short description of test [17]: Inhibition of human platelet lamellipodia formation on CRP-XL 1 umol/L preincubated for 4 mins followed by CRP-XL addition and measured after 45 mins (reference value: 69%). It counts as functional. The following applies: dose 1 µmol/L, time 49 min, at 1 µM.
Test [18] is described as follows: Inhibition of human platelet adhesion to immobilised CRP-XL at 1 umol/L preincubated for 4 mins followed by CRP-XL addition and measured after 45 mins relative to control. It is filed as functional. The following applies: 49 min, dose 1 µmol/L.
For test [19], the target named is T1, Thromboxane A2 receptor (Homo sapiens). The test is described as follows: Inhibition of [3H]-U46619 binding to TxA2 receptor in human platelet suspension at 0.3 uM incubated for 30 mins by liquid scintillation counting method relative to control. It is filed as tissue-based.
The target is the same in test [20]. The test is described as follows: Inhibition of [3H]-U46619 binding to TxA2 receptor in human platelet suspension at 0.7 uM incubated for 30 mins by liquid scintillation counting method relative to control. It counts as tissue-based.
A short description of test [21]: Inhibition of ADP-induced platelet aggregation in human platelet suspension preincubated for 3 mins followed by […] and measured after 6 mins by lumi-aggregometry. It counts as functional, tissue-based.
A short description of test [22]: Inhibition of arachidonic acid-induced platelet aggregation in human platelet suspension preincubated for 3 mins followed by […] and measured after 6 mins by lumi-aggregometry. It counts as functional, tissue-based.

Consider `CCOc1nc2cccc(C(=O)O)c2n1Cc1ccc(-c2ccccc2-c2nnn[nH]2)cc1`, for which, in [1], the Activity came to 60%. Take `CCCc1nc2c(C)cc(-c3nc4ccccc4n3C)cc2n1Cc1ccc(-c2ccccc2C(=O)O)cc1`: in [1], the Activity amounted to 48%. In test [2], the MEC amounted to 5 µM. As to `CCCCC(=O)N(Cc1ccc(-c2ccccc2-c2nnn[nH]2)cc1)[C@H](C(=O)O)C(C)C`, in test [1], the Activity stood at 53%. Further, in test [2], the MEC was 50 µM. For the same molecule, in [3], the pKd is 4.00. Regarding `Cc1cccc(Nc2nc(N[C@@H]3CCCC[C@@H]3N)ncc2C(N)=O)c1`, the pIC50 in test [4] was 7.32; in test [5] it was 5.60; in test [6], 6.46. Consider `Cc1ccccc1-c1nn[nH]n1`, for which the pKd in test [3] was 2.96. `C/C(O)=C(\C#N)C(=O)Nc1cc(Br)ccc1Br` showed a negative-log IC50 (pIC50) in test [7] of 5.55. In the case of `O=C(O)c1ccccc1-c1ccccc1`, the pKd in [3] was 2.82. Still for that read-out and setting: next, `c1ccc(-c2ccccc2-c2nn[nH]n2)cc1`: 3.44. For `c1ccc(CCCCOc2ccc(-c3ccccc3-c3nn[nH]n3)cc2)cc1`, the negative-log Kd (pKd) in test [3] was 3.07. As for `c1ccc(-c2cccc(-c3nn[nH]n3)c2)cc1`, the pKd in test [3] was 4.10. As to `c1ccc(CCOc2ccc(-c3ccccc3-c3nn[nH]n3)cc2)cc1`, in test [3], the pKd was 4.28.

In test [8], `O=C(O)Cc1cccc(OCCCN(Cc2cccc(C(F)(F)F)c2Cl)CC(c2ccccc2)c2ccccc2)c1` gave a pIC50 of 7.52. `CCCCc1nc(Cl)c(C=O)n1Cc1ccc(-c2ccccc2-c2nn[nH]n2)cc1`: the MEC in test [9] stood at 500 µM. Take `CN(C)CCCSc1ccccc1NC(=O)/C=C/c1ccccc1` [CINANSERIN]: the pIC50 in test [10] was 4.46. Molecule `NCCCC(=O)O` [GAMMA-AMINOBUTYRIC ACID] gave a pKd in test [11] of 7.39. Turning to `C=C1C(=O)[C@@]23[C@H](O)C[C@@H]4C(C)(C)C(=O)CC[C@@]4(C)[C@@H]2CC[C@@H]1[C@H]3O` [GLAUCOCALYXIN A], the pIC50 in test [12] was 5.36; in test [13], 4.85; in test [14], 4.86. `C=CCc1ccc(O)c(-c2ccc(O)c(CC=C)c2)c1` [HONOKIOL] had a pKd in [15] of 3.54. For the same molecule, the pIC50 in test [16] was 6.22. `C=CC(=O)N1CCC[C@@H](n2nc(-c3ccc(Oc4ccccc4)cc3)c3c(N)ncnc32)C1` [IBRUTINIB]: the “inhibition (INH)” value in test [17] amounted to 11%. This molecule yielded an inhibition at 1 µM in test [18] of 70%.

As to `CCCCC1=NC2(CCCC2)C(=O)N1Cc1ccc(-c2ccccc2-c2nnn[nH]2)cc1` [IRBESARTAN], in test [1], the Activity worked out at 38%. In addition, the MEC in test [2] amounted to 0.5 µM. The molecule further came in with an inhibition in [19] of 50%. For the molecule `CCCCc1nc(Cl)c(CO)n1Cc1ccc(-c2ccccc2-c2nnn[nH]2)cc1` [LOSARTAN], the Activity in test [1] is on record as 39%. The molecule further registered an inhibition in test [20] of 50%. Further, the values for the MEC in test [9] and in test [2] were 500 µM and 0.5 µM, respectively. Regarding `CC(C)=CCC/C(C)=C/C=C/C(C)=C/C=C/C(C)=C/C=C/C=C(C)/C=C/C=C(C)/C=C/C=C(\C)CCC=C(C)C` [LYCOPENE], the pIC50 in [21] is 5.21; in test [22], 5.17; in test [16], 5.24. In the case of `CCCc1nc(C(C)(C)O)c(C(=O)O)n1Cc1ccc(-c2ccccc2-c2nnn[nH]2)cc1` [OLMESARTAN], the pKd in test [3] is 3.52. As to `O=S(=O)(c1ccccc1)N(CC(F)(F)F)c1ccc(C(O)(C(F)(F)F)C(F)(F)F)cc1` [T091317], in [8], the pIC50 is below 7.30. With H-YSDTDWLYFSTS-OH, the pKd in test [3] is 4.24.
